The test system of data set [1] is thrombosis-induced neointimal hyperplasia in mouse femoral artery. The experiment in a line: Inhibition test on neointimal hyperplasia (thrombosis-induced model). The data set is classed as in vivo. The note with it: oral, once a day for 3 weeks; dose reducing the neointimal area of the non-treated group by 50 %. As for the experimental part: The effect of compounds in vivo was evaluated by using a model of thrombosis-induced neointimal hyperplasia in mouse femoral artery. Each compound was suspended in 0.5 % carboxymethylcellulose sodium solution and administered orally to mice once a day for 3 weeks. After final administration, the femoral artery was fixed and removed. Cross sections of vessels were made consecutively and the neointimal area induced and formed by thrombosis was measured. Inhibitory activity on neointimal hyperplasia of each compound was shown as a dose which reduced the area of the non-treated group by 50 % (ID50).

The test system of data set [2] is Spontaneous hypertensive rat-derived vascular smooth muscle cells (VSMCs) in thoracic aorta. In words: Inhibition test on vascular smooth muscle cells proliferation (3H-thymidine incorporation). The data set is classed as cell-based. The settings on record: Rattus norvegicus, VSMC. As for the experimental part:
Thus, the compounds of the present invention have a very potent inhibitory effect on vascular smooth muscle cells proliferation.
Spontaneous hypertensive rat-derived vascular smooth muscle cells (VSMCs) in thoracic aorta were isolated by explant technique. The VSMCs were placed into 96 wells at 5000 cells/well and incubated in DMEM containing 10 % fetal calf serum at 37 °C in 95 % air and 5 % carbon dioxide for 3 days. After the incubation, the medium was replaced with DMEM containing each compound and ^3H-thymidine, and then the VSMCs were incubated. 24 hours later, the incorporation of ^3H-thymidine into DNA was determined and the radioactivity was defined as proliferation inhibitory activity of VSMCs. The activity of each compound was shown as a concentration which reduced the radioactivity of non-treated group by 50 % (IC50).
Background: Incorporation of labelled thymidine or its analogues reports DNA synthesis.

The nature of data set [3]: Acute toxicity test. The data set is classed as in vivo. The note with it: single oral administration, dose of 2000mg/kg; for death (dead mice): 2000 mg/kg. As for the experimental part:
The compounds represented by the general formula (I) of the present invention have an LD50 value extremely preferable to that of Tranilast and therefore are very safer compounds.
Male ICR nice were fasted for 4 hours. 2-(3,4-Dimethoxycinnamoylamino)benzamide was suspended in 0.5 % carboxymethylcellulose sodium and administered orally at doses of 300, 1000 and 2000mg/kg, respectively. Dead mice and abnormal behavior were not observed even in the group administered at a dose of 2000mg/kg.

Data set [4] deals with restenosis after PTCA surgery. The note with it: patients after PTCA surgery; incidence without the drug about 30-40%; cited from earlier work.
The mark [5] stands for this setting: 3H-thymidine incorporation into DNA, 24 hours incubation with compound, read-out: Concentration of 50% inhibitory activity (IC50).

We go through ten compounds from EP0855387A1, “2-ACYLAMINOBENZAMIDE DERIVATIVES AND PREVENTIVE AND REMEDY FOR DISEASES CAUSED BY THE SUPERMULTIPLICATION OF VASCULAR INTIMAL CELLS” (KISSEI PHARMACEUTICAL CO., LTD., priority 1995, dated 1997).

Read-outs that look alike come from different tables or passages of the source.

As to `COc1ccc(/C=C/C(=O)Nc2ccccc2C(N)=O)cc1OC` [Compound 4, (E)-2-(3,4-Dimethoxycinnamoylamino)benzamide], in data set [1], the “Dose of 50% inhibitory activity (ID50)” value is given as 1 mg/kg. Moreover, in data set [2] (setting [5]), the IC50 was 27 µM. For the same compound, the abnormal behavior result in data set [3] (mice) is on record as “not observed”. For the same compound, the entries for the “death (dead mice)” value in data set [3] (listed as 2-(3,4-Dimethoxycinnamoylamino)benzamide) and in data set [3] (listed as 2-(3,4-dimethoxycinnamoylamino)benzamide) were “not observed” and “no death was observed”, respectively. As to `CCOc1ccc(/C=C/C(=O)Nc2ccccc2C(N)=O)cc1OC` [Compound 17, (E)-2-(4-Ethoxy-3-methoxycinnamoylamino)benzamide], the “Dose of 50% inhibitory activity (ID50)” value in data set [1] was determined as 1 mg/kg. For the same compound, in data set [2] (setting [5]), the IC50 worked out at 5 µM. In the case of `COc1ccc(NC(=O)/C=C/c2ccc(OC)c(OC)c2)c(C(=O)NCCO)c1` [Compound 62, (E)-2-(3,4-Dimethoxycinnamoylamino)-N-(2-hydroxyethyl)-5-methoxybenzamide], the IC50 in data set [2] (setting [5]) was determined as 89 µM.

Take `COc1cc(/C=C/C(=O)Nc2ccc(O)cc2C(N)=O)cc(OC)c1OC` [Compound 63, (E)-5-Hydroxy-2-(3,4,5-trimethoxycinnamoylamino)benzamide]: the IC50 in data set [2] (setting [5]) came out at 46 µM. Regarding `COc1cc(/C=C/C(=O)Nc2c(O)cccc2C(N)=O)cc(OC)c1OC` [Compound 64, (E)-3-Hydroxy-2-(3,4,5-trimethoxycinnamoylamino)benzamide], the IC50 in data set [2] (setting [5]) was 96 µM. The same measure, in the same setting: the same measure for `CCOc1ccc(/C=C/C(=O)Nc2cc(OC)c(OC)cc2C(N)=O)cc1OC` [Compound 65, (E)-4,5-Dimethoxy-2-(4-ethoxy-3-methoxycinnamoylamino)benzamide]: 12 µM; for `COc1ccc(/C=C/C(=O)Nc2cc(OC)c(OC)cc2C(N)=O)cc1OC` [Compound 66, (E)-4,5-Dimethoxy-2-(3,4-dimethoxycinnamoylamino)benzamide]: 13 µM; for `COc1ccc(NC(=O)/C=C/c2ccc(OC)c(OC)c2)c(C(N)=O)c1` [Compound 67, (E)-2-(3,4-Dimethoxycinnamoylamino)-5-methoxybenzamide]: 57 µM. Regarding `COc1cc(/C=C/C(=O)Nc2ccccc2C(N)=O)cc(OC)c1O` [Compound 69, (E)-2-(3,5-Dimethoxy-4-hydroxycinnamoylamino)benzamide], the IC50 in data set [2] (setting [5]) worked out at 55 µM. As to `COc1ccc(C=CC(=O)Nc2ccccc2C(=O)O)cc1OC` [Tranilast, 2-(3,4-dimethoxycinnamoylamino)benzoic acid, reference compound], the “Dose of 50% inhibitory activity (ID50)” value in data set [1] is 100 mg/kg. Moreover, the IC50 in data set [2] (in vitro, read-out: concentration exhibiting a 50% inhibitory activity on vascular smooth muscle cells proliferation) was 231 µM. For the same compound, the “restenosis observed when administering after PTCA surgery” value in data set [4] is given as 10-15%.
